From ChEMBL document CHEMBL5500414 (J Med Chem, 2024)

Legend:
BCL2A1/BID [1] = target: T1, BCL2A1/BID (Homo sapiens, UniProt Q16548)
T1 sequence (Q16548 whole entry): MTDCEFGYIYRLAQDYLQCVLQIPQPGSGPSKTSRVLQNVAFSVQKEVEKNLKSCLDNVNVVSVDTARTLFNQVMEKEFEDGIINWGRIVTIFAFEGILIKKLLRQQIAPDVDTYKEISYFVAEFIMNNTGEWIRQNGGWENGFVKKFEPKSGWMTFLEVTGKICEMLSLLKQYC
T1 sequence (P55957 whole entry): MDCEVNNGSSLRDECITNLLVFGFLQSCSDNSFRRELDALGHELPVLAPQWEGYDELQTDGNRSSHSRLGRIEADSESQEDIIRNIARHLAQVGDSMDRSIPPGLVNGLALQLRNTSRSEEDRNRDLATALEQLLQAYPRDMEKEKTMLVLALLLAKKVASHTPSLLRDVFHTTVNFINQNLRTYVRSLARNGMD
Description: Inhibition of BFL-1 (unknown origin)/FITC-conjugated Bid BH3 peptide (unknown origin) interaction by fluorescence polarization assay

MV4-11 = assay: Antiproliferative activity against human MV4-11 cells expressing high BCL-2 assessed as cell viability measured after 72 hrs by Cell Counting Kit-8 assay; details: MV4-11, 72 h
Pfeiffer = assay: Antiproliferative activity against human Pfeiffer cells expressing high BCL-2/BFL-1 assessed as cell viability measured after 72 hrs by Cell Counting Kit-8 assay
BCL2A1/BID [2] = target: T1, BCL2A1/BID; remark: listed apart in the source
[3] = target: Induced myeloid leukemia cell differentiation protein Mcl-1/BH3-interacting domain death agonist (Homo sapiens, UniProt Q07820)
Description: Inhibition of MCL-1 (unknown origin)/FAM-BID (unknown origin) interaction measured by fluorescence polarization assay

[4] = Glutathione reactivity assessed as half life
Bcl-2-related protein A1 [5] = target: Bcl-2-related protein A1 (Homo sapiens, UniProt Q16548, C55A); assay: Binding affinity to BFL-1 C55A mutant (unknown origin) assessed as inhibition constant by fluorescence polarization assay
Bcl-2-related protein A1 [6] = target: T2, Bcl-2-related protein A1 (Homo sapiens, UniProt Q16548); assay: Binding affinity to wild type human BFL-1 assessed as inhibition constant by SPR assay
T2 sequence (Q16548 whole entry): T1 sequence (Q16548 whole entry)

[7] = target: Induced myeloid leukemia cell differentiation protein Mcl-1 (Homo sapiens, UniProt Q07820); assay: Binding affinity to MCL-1 (unknown origin) assessed as inhibition constant by time-resolved fluorescence resonance energy transfer binding affinity assays
Chain of Induced myeloid leukemia cell differentiation protein Mcl-1 (Q07820 whole entry): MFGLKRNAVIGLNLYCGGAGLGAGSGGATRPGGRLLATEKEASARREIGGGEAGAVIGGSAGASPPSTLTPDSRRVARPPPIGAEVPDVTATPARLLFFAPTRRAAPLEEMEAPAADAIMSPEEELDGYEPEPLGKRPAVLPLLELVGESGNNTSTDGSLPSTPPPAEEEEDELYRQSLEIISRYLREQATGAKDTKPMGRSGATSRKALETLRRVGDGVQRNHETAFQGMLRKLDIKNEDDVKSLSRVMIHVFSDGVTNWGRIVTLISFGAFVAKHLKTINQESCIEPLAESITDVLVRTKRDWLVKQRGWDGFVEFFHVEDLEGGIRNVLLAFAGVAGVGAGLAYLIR

Chain of Induced myeloid leukemia cell differentiation protein Mcl-1/BH3-interacting domain death agonist (Q07820 whole entry, one chain of several, the tested form may be a part): as the sequence (Q07820 whole entry) above
Chain of Bcl-2-related protein A1 (Homo sapiens, UniProt Q16548, C55A) (Q16548 whole entry C55A): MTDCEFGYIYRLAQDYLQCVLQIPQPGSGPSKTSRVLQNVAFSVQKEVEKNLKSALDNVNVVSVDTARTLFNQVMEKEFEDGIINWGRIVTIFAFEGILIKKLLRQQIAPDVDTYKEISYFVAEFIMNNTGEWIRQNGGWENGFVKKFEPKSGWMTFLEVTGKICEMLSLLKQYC

SMILES	Ki (BCL2A1/BID [2])	further results
CN1CCN(C2=C(Cl)C(=O)N(c3ccc(Cl)c(Cl)c3)C2=O)CC1		IC50 (BCL2A1/BID [1]): 0.4 µM
CCOC(=O)CS(=O)(=O)c1nc(-c2ccc(F)cc2)cc(C(F)(F)F)n1		IC50 (BCL2A1/BID [1]): 2.6 µM
CC(C)(C)c1ccc(CN2CCN(S(=O)(=O)Nc3ccc(SCCc4ccccc4)cc3C(=O)O)CC2)cc1	0.645 µM	IC50 (MV4-11): 46.2 µM; IC50 (Pfeiffer): 21.3 µM
C=CC(=O)N1CCN(c2c3ccc(-c4cccc(F)c4)cc3nn2Cc2ccccc2)CC1	0.465 µM	
CC(=O)N[C@@H](Cc1c[nH]c2ccccc12)C(=O)NCCSSCCN(C)C		EC50 (BCL2A1/BID [1]): 1.3 µM
C=CC(=O)Nc1ccc2c(c1)CCC(CN1CCN(Cc3cccc(C(=O)O)c3)CC1)=C2c1ccc(Cl)cc1	> 20 µM	
C=CC(=O)Nc1ccc2c(c1)CCC(CN1CCN(c3ccc(C(=O)O)cc3-c3ccccc3)CC1)=C2c1ccc(Cl)cc1	> 20 µM	
C=CC(=O)Nc1ccc2c(c1)CCC(CN1CCN(c3ccccc3C(=O)O)CC1)=C2c1ccc(Cl)cc1	> 20 µM	
C=CC(=O)Nc1ccc2c(c1)CCC(CN1CCN(c3ccc(C(=O)NS(=O)(=O)c4ccccc4)cc3)CC1)=C2c1ccc(Cl)cc1	> 20 µM	
Nc1ccc2c(c1)CCC(CN1CCN(c3ccc(C(=O)NS(=O)(=O)c4ccc(NCC5CCOCC5)c([N+](=O)[O-])c4)c(Oc4cnc5[nH]ccc5c4)c3)CC1)=C2c1ccc(Cl)cc1	1.17 µM	IC50 (MV4-11): 4.42 µM; IC50 (Pfeiffer): 8.9 µM; Ki [3]: 4.76 µM
C=CC(=O)N(C)c1ccc2c(c1)CCC(CN1CCN(c3ccc(C(=O)O)cc3)CC1)=C2c1ccc(Cl)cc1	0.373 µM	
C=CC(=O)Nc1ccc2c(c1)CCC(CN1CCN(c3ccc(C(=O)O)c(Oc4cnc5c(ccn5C)c4)c3)CC1)=C2c1ccc(Cl)cc1	0.145 µM	
C=CC(=O)Nc1ccc2c(c1)CCC(CN1CCN(c3cccc(C(=O)O)c3)CC1)=C2c1ccc(Cl)cc1	> 20 µM	
O=C(CCl)Nc1ccc2c(c1)CCC(CN1CCN(c3ccc(C(=O)O)cc3)CC1)=C2c1ccc(Cl)cc1	0.997 µM	
C=CC(=O)Nc1ccc2c(c1)CCC(CN1CCN(c3ccc(C(=O)O)c(Oc4cnc5[nH]ccc5c4)c3)CC1)=C2c1ccc(Cl)cc1CC	0.105 µM	half-life [4]: 256 min; Ki (Bcl-2-related protein A1 [5]): 1.38 µM; Ki (Bcl-2-related protein A1 [6]): 1.95 µM; IC50 (MV4-11): 12.6 µM; IC50 (Pfeiffer): 6.92 µM; Ki [3]: 1.26 µM
C=CC(=O)Nc1ccc2c(c1)CCC(CN1CCN(c3ccc(C(=O)NS(=O)(=O)c4ccc(NCC5CCOCC5)c([N+](=O)[O-])c4)c(Oc4cnc5[nH]ccc5c4)c3)CC1)=C2c1ccc(Cl)cc1	> 20 µM	IC50 (MV4-11): 1.79 µM; IC50 (Pfeiffer): 7.5 µM; Ki [3]: 4.16 µM
C=CC(=O)N(c1ccc2c(c1)CCC(CN1CCN(c3ccc(C(=O)O)cc3)CC1)=C2c1ccc(Cl)cc1CC)C(C)C	0.14 µM	
CCc1cc(Cl)ccc1C1=C(CN2CCN(c3ccc(C(=O)NS(=O)(=O)c4ccc(NCC5CCOCC5)c([N+](=O)[O-])c4)c(Oc4cnc5[nH]ccc5c4)c3)CC2)CCc2cc(N)ccc21	1.13 µM	IC50 (MV4-11): 3.69 µM; IC50 (Pfeiffer): 8.05 µM; Ki [3]: 3.3 µM
C=CC(=O)N(C)Cc1ccc2c(c1)CCC(CN1CCN(c3ccc(C(=O)O)cc3)CC1)=C2c1ccc(Cl)cc1	0.326 µM	

SMILES	Ki (BCL2A1/BID [2])	further results
C=CC(=O)Nc1ccc2c(c1)CCC(CN1CCNCC1)=C2c1ccc(Cl)cc1	> 20 µM	
C=CC(=O)N(CC)c1ccc2c(c1)CCC(CN1CCN(c3ccc(C(=O)O)cc3)CC1)=C2c1ccc(Cl)cc1CC	0.11 µM	IC50 (MV4-11): 33.5 µM; IC50 (Pfeiffer): 22.9 µM
C=CC(=O)Nc1ccc2c(c1)CCC(CN1CCN(c3ccc(C(=O)O)c(N(C)CCCO)c3)CC1)=C2c1ccc(Cl)cc1	> 20 µM	
C=CC(=O)Nc1ccc2c(c1)CCC(CN1CCN(c3ccc(C(=O)NS(=O)(=O)c4ccc(NCC5CCOCC5)c([N+](=O)[O-])c4)c(Oc4cnc5[nH]ccc5c4)c3)CC1)=C2c1ccc(Cl)cc1CC	0.949 µM	IC50 (MV4-11): 2.35 µM; IC50 (Pfeiffer): 7.28 µM; Ki [3]: 4.51 µM
C=CC(=O)Nc1ccc2c(c1)CCC(CN1CCN(c3ccc(C(=O)O)c(N(C)CCCN(C)C)c3)CC1)=C2c1ccc(Cl)cc1	0.774 µM	
C=CC(=O)Nc1ccc2c(c1)CCC(CN1CCN(Cc3ccc(C(=O)O)cc3)CC1)=C2c1ccc(Cl)cc1	> 20 µM	
C=CC(=O)Nc1ccc2c(c1)CCC(CN1CCN(c3ccc(C(=O)O)c(-c4ccncc4)c3)CC1)=C2c1ccc(Cl)cc1	0.37 µM	
C=CC(=O)N(C)c1ccc2c(c1)CCC(CN1CCN(c3ccc(C(=O)O)cc3)CC1)=C2c1ccc(Cl)cc1CC	0.218 µM	
C=CC(=O)Nc1ccc2c(c1)CCC(CN1CCN(c3ccc(C(=O)O)cc3-c3ccncc3)CC1)=C2c1ccc(Cl)cc1	> 20 µM	
C=CC(=O)Nc1ccc2c(c1)CCC(CN1CCN(c3ccc(C(=O)O)c(-c4ccccc4)c3)CC1)=C2c1ccc(Cl)cc1	0.178 µM	
C=CC(=O)Nc1ccc2c(c1)CCC(CN1CCN(c3ccc(C(=O)O)c(Oc4cnc5[nH]ccc5c4)c3)CC1)=C2c1ccc(Cl)cc1	0.127 µM	IC50 (MV4-11): 19.9 µM; IC50 (Pfeiffer): 10.6 µM; Ki [3]: 2.36 µM
C=CC(=O)N(CC)Cc1ccc2c(c1)CCC(CN1CCN(c3ccc(C(=O)O)cc3)CC1)=C2c1ccc(Cl)cc1	0.335 µM	
C=CC(=O)N(CCC)c1ccc2c(c1)CCC(CN1CCN(c3ccc(C(=O)O)cc3)CC1)=C2c1ccc(Cl)cc1CC	0.124 µM	Ki [3]: 4.4 µM
C=CC(=O)NCc1ccc2c(c1)CCC(CN1CCN(c3ccc(C(=O)O)cc3)CC1)=C2c1ccc(Cl)cc1	0.913 µM	
C=CC(=O)Nc1ccc2c(c1)CCC(CN1CCN(c3ccc(C(=O)OCC)cc3)CC1)=C2c1ccc(Cl)cc1	> 20 µM	
CN(C)C/C=C/C(=O)Nc1cc2c(Nc3ccc(F)c(Cl)c3)ncnc2cc1O[C@H]1CCOC1 [AFATINIB]		half-life [4]: 13.2 min
C=CC(=O)Nc1cc(Nc2nccc(-c3cn(C)c4ccccc34)n2)c(OC)cc1N(C)CCN(C)C [OSIMERTINIB]		half-life [4]: 30.6 min
CC1(C)CCC(CN2CCN(c3ccc(C(=O)NS(=O)(=O)c4ccc(NCC5CCOCC5)c([N+](=O)[O-])c4)c(Oc4cnc5[nH]ccc5c4)c3)CC2)=C(c2ccc(Cl)cc2)C1 [VENETOCLAX]		Ki [7]: > 0.444 µM; IC50 (MV4-11): 0.44 µM; IC50 (Pfeiffer): 6.26 µM; Ki [3]: 3.75 µM

Continued, in another order:

Ki (BCL2A1/BID [2])	SMILES	further results
0.781 µM	C=CC(=O)Nc1ccc2c(c1)CCC(CN1CCN(c3ccc(C(=O)O)cc3)CC1)=C2c1ccccc1	
> 20 µM	C=CC(=O)Nc1ccc2c(c1)CCC(CN1CCN(c3ccc(C(=O)O)cc3)CC1)=C2c1ccc(C#N)cc1	
> 20 µM	C=CC(=O)Nc1ccc2c(c1)CCC(CN1CCN(c3ccc(C(=O)O)cc3)CC1)=C2c1cccc(Cl)c1	
> 20 µM	C=CC(=O)Nc1ccc2c(c1)CCC(CN1CCN(c3ccc(C(=O)O)cc3)CC1)=C2c1ccc(NC(C)=O)cc1	
0.723 µM	C=CC(=O)Nc1ccc2c(c1)CCC(CN1CCN(c3ccc(C(=O)O)cc3)CC1)=C2c1cccc(OC)c1	
0.256 µM	C=CC(=O)Nc1ccc2c(c1)CCC(CN1CCN(c3ccc(C(=O)O)cc3)CC1)=C2c1ccc(Cl)cc1Cl	
0.361 µM	C=CC(=O)Nc1ccc2c(c1)CCC(CN1CCN(c3ccc(C(=O)O)cc3)CC1)=C2c1ccc(Cl)cc1F	
> 20 µM	C=CC(=O)Nc1ccc2c(c1)CCC(CN1CCN(c3ccc(C(=O)O)cc3)CC1)=C2c1ccc(OC)cc1	
> 20 µM	C=CC(=O)Nc1ccc2c(c1)CCC(CN1CCN(c3ccc(C(=O)O)cc3)CC1)=C2c1ccccc1OC	
> 20 µM	C=CC(=O)Nc1ccc2c(c1)CCC(CN1CCN(c3ccc(C(=O)O)cc3)CC1)=C2c1cccc2cc[nH]c12	
> 20 µM	C=CC(=O)Nc1ccc2c(c1)CCC(CN1CCN(c3ccc(C(=O)O)cc3)CC1)=C2c1cccc(O)c1	
0.251 µM	C=CC(=O)Nc1ccc2c(c1)CCC(CN1CCN(c3ccc(C(=O)O)cc3)CC1)=C2c1ccc(Cl)cc1C	
> 20 µM	C=CC(=O)Nc1ccc2c(c1)CCC(CN1CCN(c3ccc(C(=O)O)cc3)CC1)=C2c1cnn(C)c1	
> 20 µM	C=CC(=O)Nc1ccc2c(c1)CCC(CN1CCN(c3ccc(C(=O)O)cc3)CC1)=C2C1CC1	
5.34 µM	C=CC(=O)Nc1ccc2c(c1)CCC(CN1CCN(c3ccc(C(=O)O)cc3)CC1)=C2c1ccncc1	
0.959 µM	C=CC(=O)Nc1ccc2c(c1)CCC(CN1CCN(c3ccc(C(=O)O)cc3)CC1)=C2c1ccc(Cl)cc1OC	
0.409 µM	C=CC(=O)Nc1ccc2c(c1)CCC(CN1CCN(c3ccc(C(=O)O)cc3)CC1)=C2c1ccccc1Cl	
> 20 µM	C=CC(=O)Nc1ccc2c(c1)CCC(CN1CCN(c3ccc(C(=O)O)cc3)CC1)=C2c1ccn[nH]1	
> 20 µM	C=CC(=O)Nc1ccc2c(c1)CCC(CN1CCN(c3ccc(C(=O)O)cc3)CC1)=C2c1ccc(O)cc1	
> 20 µM	C=CC(=O)Nc1ccc2c(c1)CCC(CN1CCN(c3ccc(C(=O)O)cc3)CC1)=C2Br	
0.525 µM	C=CC(=O)Nc1ccc2c(c1)CCC(CN1CCN(c3ccc(C(=O)O)cc3)CC1)=C2c1ccc(Cl)cc1	
> 20 µM	C=CC(=O)Nc1ccc2c(c1)CCC(CN1CCN(c3ccc(C(=O)O)cc3)CC1)=C2c1cn[nH]c1	
> 20 µM	C=CC(=O)Nc1ccc2c(c1)CCC(CN1CCN(c3ccc(C(=O)O)cc3)CC1)=C2c1ccc(C(=O)O)cc1	
0.158 µM	C=CC(=O)Nc1ccc2c(c1)CCC(CN1CCN(c3ccc(C(=O)O)cc3)CC1)=C2c1ccc(Cl)cc1CC	
